Laboratory results taken from patent US20160045486A1, “DOPAMINE RECEPTOR LIGANDS WITH ENHANCED DURATION OF ACTION” (priority 2008, published 2016).
Where a name gives a salt, the structure may show the parent alone. Read-outs that look alike come from different tables or passages of the source.

Key:
[1] = biological target: T1, Cloned human receptors D1 (C-6); experiment: Binding affinity, cloned human D1 receptor (C-6)
T1 construct: C-6 glioma cells expressing the rhesus macaque D1 A receptor, (C-6-m D1 A)
Method: Cells were maintained in a humidified incubator at 37° C. with 5% CO2.

[2] = biological target: T2, Cloned human receptors D3 (CHO) (Homo sapiens, UniProt P35462); experiment: Binding affinity, cloned human D3 receptor (CHO)
T2 construct: expressed in transfected cells; host or cells: CHO cells
Method: (§1) Binding data from each assay were analyzed separately. Data were normalized by expressing the average dpm at each competitor concentration as a percentage of total binding.

[3] = biological target: T3, Cloned human receptors D2L (C-6) (Homo sapiens, UniProt P14416); experiment: Binding affinity, cloned human D2L receptor (C-6)
T3 construct: expressed in transfected cells; host or cells: C-6 cells
Method: as §1

[4] = biological target: Cloned human receptors D5 (HEK) (Homo sapiens, UniProt P21918); experiment: biochemical
Method: as §1

[5] = tested on: unilateral 6-OHDA rat model; experiment: Rotation in the unilateral 6-OHDA rat model of Parkinson's disease; type: in vivo
Method: Both drugs were administered 1 mg/kg subcutaneously (SC), and the number of rotations measured (i.e., rotations counter clockwise) over time (minutes) using the model first described by
Ungerstedt (Ungerstedt and Arbuthnott, 1970).
In some studies, adult male Sprague Dawley rats (200-250 g) were obtained from Charles River Breeding Laboratories (Raleigh, N.C.) or Harlan Laboratories (Indianapolis, Ind.). Rats were killed by decapitation, and the whole brains removed and chilled briefly in ice-cold saline. Brains were sliced with the aid of a dissecting block, and central striata were then dissected from two coronal sections containing the majority of this region. Tissue was frozen immediately on dry ice and stored at −70° C. until the day of the assay. In other studies, Sprague-Dawley rats weighing between ca. 175 g received unilateral injections of 6-OHDA. They were pretreated with 25 mg/kg desipramine, anesthetized with sodium pentobarbital and placed in a stereotaxic apparatus. Thirty gauge needles were lowered into the right aspects of the substantia nigra at Interaural zero +3.2 mm; lateral −2.0 mm; and dorsoventral −7.7 mm. Four μl of 0.1% ascorbic acid in sterile saline containing 8 μg of 6-OHDA were infused in each side over a period of 20 minutes using 10 μl Hamilton syringes and a Sage syringe pump. The needles were left in place two minutes after infusion to minimize withdrawal of the 6-OHDA solution with the needles. The small burr holes in the skull were plugged with bone wax, and the wound sutured. Post-operative care of these rats included observation, sweet food supplements, and gastric intubation during the aphagic period following lesion. Fourteen or more days after the lesion, rats were challenged with 1 mg/kg apomorphine, and rotations measured. […] The rats were then allowed to “wash-out” for a week between drug trials.

[6] = biological target: T4, Cloned human receptors D4 (CHO) (Homo sapiens, UniProt P21917); experiment: biochemical
T4 sequence (P21917 1-419): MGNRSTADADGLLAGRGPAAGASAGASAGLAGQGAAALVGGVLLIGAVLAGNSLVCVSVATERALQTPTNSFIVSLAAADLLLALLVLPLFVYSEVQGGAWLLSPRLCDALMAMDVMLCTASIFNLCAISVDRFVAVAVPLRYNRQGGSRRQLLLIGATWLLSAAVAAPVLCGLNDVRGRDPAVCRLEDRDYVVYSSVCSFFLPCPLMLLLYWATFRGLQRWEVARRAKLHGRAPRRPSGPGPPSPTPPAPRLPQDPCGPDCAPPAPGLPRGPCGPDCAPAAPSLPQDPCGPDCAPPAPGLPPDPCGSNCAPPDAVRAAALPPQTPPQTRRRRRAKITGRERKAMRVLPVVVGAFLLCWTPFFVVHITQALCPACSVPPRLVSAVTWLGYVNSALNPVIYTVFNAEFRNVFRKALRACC
Method: as §1

[7] = biological target: T5, cloned hD1 receptors expressed in Ltk cells (Homo sapiens, UniProt P21728); experiment: Dopamine D1 agonist activity, activation of adenylate cyclase; type: cell-based; details: FIG. 2, compared to dihydrexidine
T5 construct: expressed in transfected cells; host or cells: Ltk cells
Method: Studies were done in cloned hD1 receptors expressed in Ltk cells.
Frozen membranes were thawed and added to assay tubes (10 μg protein/tube) containing a prepared reaction mixture [100 mM Hepes, (pH 7.4), 100 mM NaCl, 4 mM MgCl2, 2 mM EDTA, 500 μM isobutyl methylxanthine (IBMX), 0.01% ascorbic acid, 10 μM pargyline, 2 mM ATP, 5 μM GTP, 20 mM phosphocreatine, 5 units of creatine phosphokinase (CPK), 1 μM propranolol] and selected drugs. The final reaction volume was 100 μL.
Basal cAMP activity was determined by incubation of tissue in the reaction mixture with no drug added. Tubes were assayed in duplicate and, after a 15 min incubation at 30° C., the reaction was stopped by the addition of 500 μL of 0.1 N HCl. Tubes were vortexed briefly, and then spun in a BHG HermLe Z 230 M microcentrifuge for five min at 15,000×g to precipitate particulates.
The concentration of cAMP in each sample was determined with an RIA of acetylated cAMP, modified from that previously described. Iodination of cAMP was performed using a now-published procedure (Brown et al., 2009). […] Antibody-bound radioactivity was separated by the addition of 25 μL of BioMag rabbit, anti-goat IgG (Advanced Magnetics, Cambridge Mass.), followed by vortexing and incubation at 4° C. for 1 h. […] Supernatants were aspirated and radioactivity in the pellet was determined using an LKB Wallac gamma counter (Gaithersburg, Md.). […]

[8] = tested on: non-dopamine receptors (monoamine transporters, serotonin, adrenergic, hH1, muscarinic, opioid, miscellaneous receptors); experiment: Affinity at other receptors (10 μM screen of non-dopamine receptors and transporters); details: 10 μM concentration; full dose-response only where >50% inhibition of binding

T2 sequence (P35462 whole entry): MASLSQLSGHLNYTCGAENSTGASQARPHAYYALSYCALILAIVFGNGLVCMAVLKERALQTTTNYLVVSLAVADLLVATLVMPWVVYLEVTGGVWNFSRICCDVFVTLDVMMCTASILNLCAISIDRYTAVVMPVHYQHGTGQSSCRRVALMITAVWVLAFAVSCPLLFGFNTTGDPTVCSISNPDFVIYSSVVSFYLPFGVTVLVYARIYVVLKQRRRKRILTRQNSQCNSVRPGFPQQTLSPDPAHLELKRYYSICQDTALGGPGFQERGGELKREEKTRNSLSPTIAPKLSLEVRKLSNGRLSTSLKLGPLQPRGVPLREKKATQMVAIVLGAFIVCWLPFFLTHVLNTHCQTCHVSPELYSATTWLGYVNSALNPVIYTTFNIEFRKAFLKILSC
Sequence of Cloned human receptors D5 (HEK) (P21918 whole entry): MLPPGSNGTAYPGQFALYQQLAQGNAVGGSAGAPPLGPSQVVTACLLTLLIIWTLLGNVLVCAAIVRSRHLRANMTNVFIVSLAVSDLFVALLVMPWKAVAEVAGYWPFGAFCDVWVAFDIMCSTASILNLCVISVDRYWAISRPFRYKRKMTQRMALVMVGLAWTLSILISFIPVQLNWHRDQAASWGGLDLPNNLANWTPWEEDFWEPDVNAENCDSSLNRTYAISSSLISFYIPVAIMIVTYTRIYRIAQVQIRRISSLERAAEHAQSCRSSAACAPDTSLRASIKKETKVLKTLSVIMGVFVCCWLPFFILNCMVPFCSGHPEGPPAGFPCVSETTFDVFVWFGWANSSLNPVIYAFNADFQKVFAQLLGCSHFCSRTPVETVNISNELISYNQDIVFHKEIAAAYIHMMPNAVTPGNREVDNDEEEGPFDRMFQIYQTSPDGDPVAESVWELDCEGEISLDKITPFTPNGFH
T3 sequence (P14416 whole entry): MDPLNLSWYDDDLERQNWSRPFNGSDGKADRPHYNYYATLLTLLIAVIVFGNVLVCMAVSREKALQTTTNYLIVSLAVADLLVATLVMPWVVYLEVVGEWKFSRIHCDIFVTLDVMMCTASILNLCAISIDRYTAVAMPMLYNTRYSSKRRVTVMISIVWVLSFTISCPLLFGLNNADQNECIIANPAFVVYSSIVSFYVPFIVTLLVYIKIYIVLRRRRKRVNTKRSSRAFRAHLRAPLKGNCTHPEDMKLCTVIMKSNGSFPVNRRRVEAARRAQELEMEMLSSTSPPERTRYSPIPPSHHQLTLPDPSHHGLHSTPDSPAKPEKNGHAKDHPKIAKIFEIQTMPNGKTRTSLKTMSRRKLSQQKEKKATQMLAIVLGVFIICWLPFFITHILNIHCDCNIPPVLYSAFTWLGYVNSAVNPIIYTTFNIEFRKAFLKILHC
T5 sequence (P21728 whole entry): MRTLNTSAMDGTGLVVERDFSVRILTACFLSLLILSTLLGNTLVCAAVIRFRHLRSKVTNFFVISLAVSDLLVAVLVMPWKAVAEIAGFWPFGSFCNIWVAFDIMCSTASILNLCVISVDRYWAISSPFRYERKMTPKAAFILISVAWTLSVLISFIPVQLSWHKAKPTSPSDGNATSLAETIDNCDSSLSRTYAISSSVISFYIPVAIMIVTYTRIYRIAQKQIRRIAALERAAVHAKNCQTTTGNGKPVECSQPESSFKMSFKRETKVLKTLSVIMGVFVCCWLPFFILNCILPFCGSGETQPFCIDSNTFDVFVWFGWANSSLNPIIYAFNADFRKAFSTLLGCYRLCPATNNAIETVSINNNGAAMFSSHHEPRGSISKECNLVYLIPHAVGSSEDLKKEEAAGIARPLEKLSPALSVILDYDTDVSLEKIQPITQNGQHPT

Row | Compound | Ki ([1]; C-6 cells; read-out: K0.5, Cloned human receptors D1 (C-6)) | Ki ([2]; CHO cells, read-out: K0.5, Cloned human receptors D3 (CHO)) | Ki ([1]; read-out: K0.5, Cloned human receptors D1 (C-6); C-6 cells) | Ki [2] | Ki [3] | Ki [4] | agonist effects in presence of D1 antagonist SCH23390 ([5]; SCH23390 0.3 mg/kg) | rotation in presence of D2 antagonist haloperidol ([5]; haloperidol 0.1 mg/kg) | duration of activity (rotations over time) ([5]; single subcutaneous injection of 1 mg/kg, FIG. 1) | Ki [6] | agonist intrinsic activity and potency (adenylate cyclase, percentage of activation caused by 100 μM dopamine) [7] | affinity for non-dopamine receptors [8]
1 | Oc1cc2c(cc1O)[C@@H]1c3ccccc3CN[C@H]1CC2 (relative stereo) [dihydrexidine, trans-10,11-dihydroxy-5,6,6a,7,8,12b-hexahydrobenzo[a]phenanthridine, reference compound] | 2.2 nM | 15 nM | – | – | – | – | – | – | – | – | – | –
2 | Cc1ccc2c(c1)[C@@H]1c3cc(O)c(O)cc3CC[C@H]1NC2 (racemic) [Compound 1, Trans-2-methyl-10,11-dihydroxy-5,6,6a,7,8,12b-hexahydrobenzo[a]phenanthridine hydrochloride] | – | – | 8 nM | 95 nM | 525 nM | 7 nM | completely blocked | not blocked | activity lasting for nearly ten hours | 325 nM | full agonist of similar intrinsic activity and potency when compared to dihydrexidine | little affinity for most receptors
